Experiments:
[1] = system: Delta and mu opioid receptors (Mus musculus); test: Selectivity for delta opioid receptor over mu opioid receptor
[2] = system: Delta (Mus musculus) and kappa (Rattus norvegicus) opioid receptors; test: Selectivity for delta opioid receptor over kappa opioid receptor
[3] = target: Mu-type opioid receptor (Mus musculus) (UniProt P42866); test: Inhibition of (-)-[9-3H]bremazocine binding to mu opioid receptor at 10 uM
[4] = target: Delta-type opioid receptor (Mus musculus) (UniProt P32300); test: Inhibition of (-)-[9-3H]bremazocine binding to delta opioid receptor at 10 uM
Sequence of Delta-type opioid receptor (Mus musculus) (P32300 whole entry, looked up): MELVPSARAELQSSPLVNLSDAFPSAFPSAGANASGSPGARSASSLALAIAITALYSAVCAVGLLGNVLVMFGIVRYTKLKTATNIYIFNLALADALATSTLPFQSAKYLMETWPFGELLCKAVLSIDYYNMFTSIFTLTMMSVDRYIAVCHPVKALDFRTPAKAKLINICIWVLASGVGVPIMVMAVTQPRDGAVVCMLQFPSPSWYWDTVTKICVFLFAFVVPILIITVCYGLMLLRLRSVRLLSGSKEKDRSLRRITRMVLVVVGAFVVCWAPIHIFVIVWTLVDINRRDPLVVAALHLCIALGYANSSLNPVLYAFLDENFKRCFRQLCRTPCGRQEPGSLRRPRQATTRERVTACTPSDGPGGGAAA

[5] = target: Kappa-type opioid receptor (Rattus norvegicus) (UniProt P34975); test: Inhibition of (-)-[9-3H]bremazocine binding to kappa opioid receptor at 10 uM
Sequence of Kappa-type opioid receptor (Rattus norvegicus) (P34975 whole entry, looked up): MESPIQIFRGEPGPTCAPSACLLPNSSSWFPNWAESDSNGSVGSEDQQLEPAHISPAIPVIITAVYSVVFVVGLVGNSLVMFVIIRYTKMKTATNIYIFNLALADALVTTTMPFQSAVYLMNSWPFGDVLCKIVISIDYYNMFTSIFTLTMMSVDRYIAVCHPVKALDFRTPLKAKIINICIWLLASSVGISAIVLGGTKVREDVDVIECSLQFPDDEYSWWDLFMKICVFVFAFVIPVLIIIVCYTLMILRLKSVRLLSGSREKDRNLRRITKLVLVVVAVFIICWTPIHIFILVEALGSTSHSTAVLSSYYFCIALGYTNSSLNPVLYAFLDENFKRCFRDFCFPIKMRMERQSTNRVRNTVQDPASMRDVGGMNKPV

[6] = target: Mu-type opioid receptor (Mus musculus) (UniProt P42866); test: Inhibition of (-)-[9-3H]bremazocine binding to mu opioid receptor expressed in HEK293 cells
[7] = target: Delta-type opioid receptor (Mus musculus) (UniProt P32300); test: Inhibition of (-)-[9-3H]bremazocine binding to delta opioid receptor expressed in HEK293 cells
[8] = target: Kappa-type opioid receptor (Rattus norvegicus) (UniProt P34975); test: Inhibition of (-)-[9-3H]bremazocine binding to kappa opioid receptor expressed in HEK293 cells

Sequence of Mu-type opioid receptor (Mus musculus) (P42866 whole entry, looked up): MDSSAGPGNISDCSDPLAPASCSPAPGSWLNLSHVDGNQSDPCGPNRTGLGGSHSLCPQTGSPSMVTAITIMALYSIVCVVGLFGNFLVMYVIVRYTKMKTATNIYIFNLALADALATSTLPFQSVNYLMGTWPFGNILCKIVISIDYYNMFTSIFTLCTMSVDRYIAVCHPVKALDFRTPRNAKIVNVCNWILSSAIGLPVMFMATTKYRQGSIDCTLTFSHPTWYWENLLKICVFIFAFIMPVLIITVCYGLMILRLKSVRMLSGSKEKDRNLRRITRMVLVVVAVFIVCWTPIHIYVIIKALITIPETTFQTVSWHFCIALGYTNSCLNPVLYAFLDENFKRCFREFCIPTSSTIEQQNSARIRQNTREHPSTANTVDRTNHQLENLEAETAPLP

Row | SMILES | Selectivity ratio [1] | Selectivity ratio [2] | inhibition [3] [%] | inhibition [4] [%] | inhibition [5] [%] | Ki [6] [µM] | Ki [7] [µM] | Ki [8] [µM]
1 | CC(C)(C)c1cccc(-c2nncn2-c2cccc(O)c2)c1 | 3.7 | 6.52 | 78 | 91 | 66 | 0.85 | 0.23 | 1.5
2 | CN(C)CCc1nnc(-c2ccc(C(C)(C)C)cc2)n1-c1cccc(O)c1 | – | – | 23 | 90 | 19 | > 10 | 0.9 | > 10
3 | CN(C)c1nnc(-c2cccc(C(C)(C)C)c2)n1-c1cccc(O)c1 | – | – | 19 | 76 | 6 | > 10 | 1.05 | > 10
4 | CN(C)c1nnc(-c2ccc(-c3ccccc3)cc2)n1-c1cccc(O)c1 | – | – | 15 | 82 | 11 | > 10 | 0.13 | > 10
5 | Oc1cccc(-n2cnnc2-c2ccc(-c3ccccc3)cc2)c1 | – | – | 60 | 75 | 46 | > 10 | 1.5 | > 10
6 | Oc1cccc(-n2cnnc2-c2cccc(-c3ccccc3)c2)c1 | 7.14 | > 71.4 | 84 | 84 | 42 | – | – | > 10
7 | COc1cccc(-n2c(-c3ccc(C(C)(C)C)cc3)nnc2N(C)C)c1 | – | – | 50 | 28 | 3 | > 10 | > 10 | > 10
8 | CN(C)Cc1nnc(-c2ccc(C(C)(C)C)cc2)n1-c1cccc(O)c1 | – | – | – | – | 9 | – | – | > 10
9 | CN(C)c1nnc(-c2cccc(-c3ccccc3)c2)n1-c1cccc(O)c1 | > 66.6 | > 66.6 | 23 | 86 | 8 | > 10 | 0.15 | > 10
10 | CN(C)c1nnc(-c2ccc(C(C)(C)C)cc2)n1-c1cccc(O)c1 | 80 | > 200 | 32 | 94 | 6 | 4 | 0.05 | > 10
11 | Oc1cccc(-n2cnnc2-c2ccc3ccccc3c2)c1 | > 4.76 | > 4.76 | 48 | 68 | 27 | > 10 | 2.1 | > 10
12 | COc1cccc(-n2cnnc2-c2ccc(C(C)(C)C)cc2)c1 | – | – | 9 | – | 8 | > 10 | – | > 10
13 | CN(C)c1nnc(-c2ccc3ccccc3c2)n1-c1cccc(O)c1 | > 20.8 | > 20.8 | 48 | 68 | 27 | > 10 | 0.48 | > 10
14 | CN(C)c1nnc(-c2ccc(C(C)(C)C)cc2)n1-c1ccc(O)cc1 | – | – | 8 | 27 | 21 | > 10 | > 10 | > 10
15 | CN(C)Cc1nnc(-c2cccc(C(C)(C)C)c2)n1-c1cccc(O)c1 | – | – | – | 65 | – | – | 2.6 | –
16 | COc1cccc(-n2cnnc2-c2cccc(C(C)(C)C)c2)c1 | – | – | – | – | 5 | – | – | > 10
17 | CC(C)(C)c1ccc(-c2nncn2-c2cccc(O)c2)cc1 | – | – | 16 | 54 | 16 | > 10 | 10 | > 10
18 | CN1CCN(c2nnc(-c3ccc(C(C)(C)C)cc3)n2-c2cccc(O)c2)CC1 | – | – | 5 | 18 | 12 | > 10 | > 10 | > 10

Reference: ChEMBL document CHEMBL1138930, “Discovery of novel triazole-based opioid receptor antagonists” (J Med Chem, 2006)
